Source: patent US20220008445A1, “METHODS, COMPOSITIONS, AND KITS FOR TREATING OCULAR DISEASES” (ELOXX PHARMACEUTICALS, priority 2018, published 2022)

What was measured:
[1] = test system: retina; conditions: have been reported; cited from earlier work
[2] = test system: healthy New Zealand white rabbits; assay: Single-dose intravitreal tolerability, ERG and histology; type: in vivo
Description: Biocompatibility and pharmacokinetic/pharmacodynamic profiles were then evaluated for intravitreal injection of NB118 versus gentamicin. Single-dose tolerability was screened in healthy New Zealand white rabbits and evaluated based on ERG and histology. Dark-adapted oscillatory potential and photopic b-wave amplitudes were measured pre- and nine-days post a single 300 μg or 600 μg injection of aminoglycoside as shown in FIG. 2.
Results were confirmed by a veterinary pathologist.

[3] = test system: retina; conditions: for tolerability in gross ophthalmological examination and ERG compared to gentamicin: in vivo
Description: Biocompatibility and pharmacokinetic/pharmacodynamic profiles were evaluated for the aminoglycosides NB30, NB54/Compound 37, NB84/ELX-03, NB122/ELX-01, NB124/ELX-02, NB127/ELX-04, NB118/ELX-05, and NB128/ELX-06 in patient-derived cell lines and rodent animal models.
NB122 was well-tolerated compared to gentamicin in gross ophthalmological examination and ERG when administered by intravitreal injection.

[4] = test system: USH2A mutation R626X; assay: Plasmid-based dual-luciferase read-through assay in HeLa cells, USH2A; type: cell-based; conditions: for read-through of the USH2A mutation (in words): FIG. 7, FIG. 9; for dose-dependence of read-through induction, USH2A: FIG. 10
Description: (§1) An in vitro assay was then performed to determine if the same dose-dependent suppression could be achieved using other aminoglycosides. This in vitro assay utilized a plasmid-based, dual-luciferase approach. Short sequences that include Usher syndrome nonsense mutations were cloned into the linker region between Renilla and Firefly luciferase reporters, and plasmids were transiently transfected into HeLa cells to evaluate compound read-through. This model permits an early assessment of read-through potential against disease-specific mutations. Read-through activity was evaluated using USH2A and USH1F mutations.
(§2) NB122, NB124, NB84, NB127, NB118, NB128, NB124-MeS, and NB157 were evaluated for their ability to induce read-through on the USH2A mutation R626X and the USH1F PCDH15 mutation R3X.

[5] = test system: USH1F PCDH15 mutation R3X; assay: Plasmid-based dual-luciferase read-through assay in HeLa cells, USH1F; type: cell-based; conditions: for read-through of the USH1F mutation (in words): FIG. 8, FIG. 9; for dose-dependence of read-through induction, USH1F: FIG. 11
Description: as §1, §2

[6] = test system: R213X nonsense mutation in human TP53; assay: Protein Based Read-through Assay in DMS114 cells; type: cell-based; conditions: Western blot and immunofluorescence
Description: Protein Based Read-through Assay. NB122, NB124, NB84, NB118, and NB128 were evaluated for their protein-based read-through potential in DMS114 cells, which harbor a native R213X nonsense mutation in human TP53 as depicted in the scheme shown in FIG. 12. […] A high-throughput immunofluorescence assay measuring p53 localized at the nucleus is shown in FIG. 15 with dose-dependence studies for NB84. Lastly, FIG. 16 provides full dose response curves for NB122, NB124, NB84, NB118, and NB128 with the error bars representing a standard deviation (SD).

[7] = test system: nonsense mutation R262X in the Oca2 gene; assay: Read-through after intravitreal injection in albino mice (melanin production); type: in vivo, SJL/J mice; conditions: for in vivo read-through as compared to gentamicin: injection to the posterior segment (back of eye); for melanin production in the eye: intravitreal injection, FIGS. 20-21
Description: Read-through activity following intravitreal injection of aminoglycosides was evaluated in animal models.
Albino mice (SJL/J mice) harbor the nonsense mutation R262X in the Oca2 gene resulting in an absence of melanin production in melanocytes. This model provides an initial evaluation of compound availability to the back of the eye when administered by intravitreal injection—higher concentrations of melanin correspond to greater read-through activity.
NB122, NB124, NB124-MeS, NB84, NB118, NB127, NB128, and NB157 were evaluated for read-through activity following intravitreal injection into SJL/J mice. FIGS. 20-21 show intravitreal read-through for each compound relative to gentamicin.

[8] = test system: USH1F nonsense mutations R3X and R245X; assay: Cell-Free Read-through Assay; type: biochemical; conditions: FIG. 5A-B
Description: Cell-Free Read-through Assay. NB84 and NB127 were evaluated for their ability to induce read-through of the USH1F nonsense mutations R3X and R245X in a cell-free assay.

[9] = test system: USH1 nonsense mutations; assay: In vitro cell-based read-through assay in HEK293 cells; conditions: greater at higher concentrations, FIG. 6A-B
Description: In Vitro Cell-Based Assay. NB84 and NB127 were next tested in an in vitro assay using HEK293 cells to determine if similar read-through activity could be achieved in a cellular environment.

[10] = test system: USH1C nonsense mutation R155X; assay: Usher protein expression, USH1C nonsense mutation; type: cell-based; conditions: FIG. 17
Description: The ability of these compounds to induce protein expression of nonsense mutations associated with Usher syndrome was evaluated using USH1C nonsense mutations.

[11] = test system: retinal cultures; assay: Cytotoxicity in retinal cultures (staining profile); type: cell-based
Description: The cytotoxicity of NB30, NB54, NB84, NB122, NB124, and NB127 was evaluated in retinal cultures.

[12] = Intravitreal pharmacokinetic profile, retina exposure; type: in vivo, Dutch-Belted rabbits; conditions: 100 μg intravitreal
Description: Pharmacokinetic profiles of NB124 were evaluated using healthy Dutch-Belted rabbits. Rabbits were injected with 100 μg of NB124 and followed for 192 hours. […] Overall, the results support a favorable therapeutic index for intravitreal administration of any of NB124.

[13] = intravitreal, human; cited from earlier work
[14] = nine days after single 300 μg or 600 μg intravitreal injection

Compound | tolerability in gross ophthalmological examination and ERG compared to gentamicin [3] | read-through of the USH2A mutation (in words) [4] | dose-dependence of read-through induction, USH2A [4] | read-through of the USH1F mutation (in words) [5] | dose-dependence of read-through induction, USH1F [5] | nonsense mutation read-through as measured by protein expression (full length p53) [6] | in vivo read-through as compared to gentamicin [7] | melanin production in the eye [7] | protein expression versus gentamicin and vehicle control [10] | other results
CN[C@@H]1[C@@H](O)[C@@H](O[C@@H]2[C@@H](O)[C@H](O[C@H]3O[C@H]([C@@H](C)O)[C@@H](O)[C@H](O)[C@H]3N)[C@@H](N)C[C@H]2N)OC[C@]1(C)O [Compound G418, G418] |  |  |  |  |  |  |  |  |  | reported retinal toxicities [1]: dose-limiting retinal toxicities
CC(N)C1OC(OC2C(O)C(N)CC(N)C2OC2OC(CO)C(O)C(O)C2N)C(O)C1O (stereo not shown) [NB118] | well-tolerated | significant read-through | dose-dependence | significant read-through | dose-dependence | dose-dependent | significant read-through | dose-dependent increase |  | anatomic changes in retina, H&E stained sections ([2]; rabbit, in vivo): did not produce adverse anatomic changes; impact on ERG amplitudes or implicit times ([2]; rabbit, in vivo): minimal to no impact; in vivo ocular tolerance, intravitreal doses [3]: up to 600 μg/mL
C[C@@H](O)C1O[C@H](O[C@@H]2C(N)C[C@@H](NC(=O)[C@@H](O)CCN)[C@@H](O)C2O[C@@H]2O[C@H](CN)[C@H](O)C2O)[C@@H](N)C(O)[C@@H]1O (stereo partly shown) [NB84] | well-tolerated | significant read-through | dose-dependence | significant read-through | dose-dependence | dose-dependent | significant read-through | dose-dependent increase | increased protein expression | in vivo ocular tolerance, intravitreal doses [3]: up to 600 μg/mL; read-through as compared to G418 and gentamicin [8]: significant read-through; read-through in cells [9]: significant read-through
CC(N)C1OC(OC2C(O)C(NS(C)(=O)=O)CC(N)C2OC2OC(C(C)O)C(O)C(O)C2N)C(O)C1O (stereo not shown) [NB124-MeS] | well-tolerated | significant read-through |  | significant read-through |  |  | significant read-through | dose-dependent increase |  | 
CC(N)C1OC(OC2C(O)C(NC(=O)C(O)CCN)CC(N)C2OC2OC(C(C)O)C(O)C(O)C2N)C(O)C1O (stereo not shown) [NB128] | well-tolerated | significant read-through | dose-dependence | significant read-through | dose-dependence | dose-dependent | significant read-through | dose-dependent increase |  | 
CCCNC1CC(N)C(OC2OC(C(C)O)C(O)C(O)C2N)C(OC2OC(CN)C(O)C2O)C1O (stereo not shown) [NB147] | well-tolerated |  |  |  |  |  | significant read-through |  |  | 
NCC[C@H](O)C(=O)N[C@@H]1CC(N)[C@@H](O[C@H]2OC(CO)[C@@H](O)[C@H](O)C2N)[C@H](O[C@@H]2O[C@H](CN)[C@H](O)C2O)C1O (stereo partly shown) [NB54] |  |  |  |  |  |  |  |  |  | staining profile versus untreated retinal cultures [11]: did not significantly differ
C[C@H](N)[C@H]1O[C@@H](O[C@@H]2[C@@H](O)[C@H](N)C[C@H](N)[C@H]2O[C@H]2O[C@H]([C@@H](C)O)[C@@H](O)[C@H](O)[C@H]2N)[C@H](O)[C@@H]1O [NB124] | well-tolerated |  | dose-dependence |  | dose-dependence | dose-dependent | significant read-through | dose-dependent increase | increased protein expression | time for which retina exposure covers the compound's IC50 [12]: over 48 hours; time of peak retina exposure ([12]; followed for 192 hours): 3 h
CC(N)C1OC(OC2C(O)C(NC(=O)C(O)CCN)CC(N)C2OC2OC(CO)C(O)C(O)C2N)C(O)C1O (stereo not shown) [NB122] | well-tolerated |  | dose-dependence |  | dose-dependence | dose-dependent | significant read-through | dose-dependent increase | increased protein expression | in vivo ocular tolerance, intravitreal doses [3]: up to 600 μg/mL; R3X read-through rate ([5]; R3X): 2.7%; increase over native read-through ([5]; R3X): 2.5 fold
C[C@H](N)[C@H]1O[C@@H](O[C@@H]2C(O)[C@H](N)CC(N)[C@H]2O[C@H]2OC([C@H](O)CO)[C@@H](O)[C@H](O)C2N)C(O)[C@H]1O (stereo partly shown) [NB157] |  | significant read-through |  | significant read-through |  |  |  | dose-dependent increase |  | 
gentamicin [reference compound] |  |  |  |  |  |  |  |  |  | dark-adapted oscillatory potential peaks (ERG) [2, 14]: ablation; photopic b-wave potentials (ERG) [2, 14]: moderate reduction; melanin ([7]; 0.2 μg intravitreal, t-test vs. vehicle control): increases melanin; dose at which toxicity observed ([7]; intravitreal, pilot study FIG. 19): 0.5 µg; half-life [13]: 40 to 60 h; reported retinal toxicities [1]: dose-limiting retinal toxicities
CC(N)C1OC(OC2C(O)C(NC(=O)C(O)CCN)CC(N)C2OC2OC(C(C)O)C(O)C(O)C2N)C(O)C1O (stereo not shown) [NB127] | well-tolerated | significant read-through |  | significant read-through |  |  | significant read-through | dose-dependent increase | increased protein expression | read-through as compared to G418 and gentamicin [8]: significant read-through; read-through in cells [9]: significant read-through
